# Laboratory results: patent US4226610A, “Herbicidal compounds, preparation thereof and herbicides containing the same” (Meiji Selka Kaisha, Ltd., priority 1978, dated 1980)
# Entries after “also recorded” stand apart in the source; their conditions may differ. Structures can show the parent of a compound that is named as a salt.
# How the values were obtained:
# miyakozasa = assay: Experiment 2 foliar application in Japanese cypress afforested land; format: in vivo, Sasa nipponica Makino et Shibata; settings: 0.25%
# Protocol: (§1) The detail of the assessment made in the following Experiments of the invention was as follows:
# (§2) The compounds of the invention and other compounds listed in Table 4. were diluted to prescribed concentrations and sprayed to shrubs by foliar application in a Japanese cypress afforested land in an amount of 150 liter per 10 are.
# (§3) After 30 days and 3 months, the killing index (0, no effect; 5, death) was determined.
# (§4) The heights of plants were 50-70 cm. for Japanese cypress, about 50 cm. for chestnut, 50-90 cm. for miyakozasa, about 100 cm. for eulalia and 70-100 cm. for kumaichigo, respectively.
# Japanese prickly ash = assay: Experiment 3 foliar application to naturally growing shrubs; format: in vivo, Xanthoxylum piperitum DC.; settings: after 3 months
# Text: as §1
# (§5) Four months after treatment, evaluation was made for inhibition of reproduction expressed in terms of symbols ranging from (-) to (+++) where (-) means no reproduction, namely complete suppression of reproduction, (±) remarkable suppression of reproduction; (+) considerable suppression of reproduction; (++) medium supprestion of reproduction; and (+++) no suppression of reproduction.
# (§6) The compounds of the invention and other compounds listed in Table 5. were diluted to prescribed concentrations and sprayed onto naturally growing shrubs by foliar application in an amount of 150 liter per 10 are.
# (§7) 0.1% of octylphenyl polyoxyethanol was added as the surfactant. The killing index (0, no effect; 5, death) after 1 month and 3 months, and the reproduction-inhibiting effect (-, no reproduction; +++, maximum reproduction) after 3 months were determined.
# kiichigo = assay: as above; format: in vivo, Rubus palmatsu Thunb. forma coptophyllus Makino
# Text: as §1, §5, §6, §7
# eulalia = assay: Experiment 2 foliar application in Japanese cypress afforested land; format: in vivo, Miscanthus sinensis Andress.; design: key: 0 = no effect, 5 = death
# Protocol: as §1, §2, §3, §4
# yabugarashi = assay: Experiment 1 foliar application to naturally growing weeds; format: in vivo, Cayratia japonica Houtt.; settings: 4 months
# Text: as §1, §5
# (§8) The compounds of the invention and other compounds for comparison listed in Table 3 were diluted to prescribed concentrations and sprayed to naturally growing weeds by foliar application in an amount of 150 liter per 10 are.
# (§9) 0.1% of octylphenyl polyoxyethanol was added as a surfactant.
# (§10) The killing index (0, no effect, 5, death) after 21 days, and the reproduction-inhibiting effect (-, no reproduction; +++, maximum reproduction) after 2 months (manna grass and cockspar grass) and 4 months (other weeds) were determined.
# purple nutsedge = assay: as above; format: in vivo, Cyperus rotundus L.; settings: 4 months
# Text: as §1, §5, §8, §9, §10
# cockspar grass = assay: as above; format: in vivo, Echinochloa Crusgalli P. Beauv.; settings: for Reproduction-inhibiting effect: 2 months; for Killing index of Upperground parts: 21 days
# Text: as §1, §5, §8, §9, §10
# warunasubi = assay: as above; format: in vivo, Solanum carolinensis L.; settings: 4 months
# Text: as §1, §5, §8, §9, §10
# white clover = assay: as above; format: in vivo, Trifolium repens L.; settings: for Reproduction-inhibiting effect: 4 months
# Text: as §1, §5, §8, §9, §10
# hedge bindweed = assay: as above; format: in vivo, Calystegis hederacea Wall.; settings: 4 months
# Text: as §1, §5, §8, §9, §10
# chigaya = assay: as above; format: in vivo, Imperata cylindrica Beauv.; settings: 4 months
# Text: as §1, §5, §8, §9, §10
# oak = assay: Experiment 3 foliar application to naturally growing shrubs; format: in vivo, Quercus serrata Thunb; settings: after 3 months
# Text: as §1, §5, §6, §7
# torch azalea = assay: as above; format: in vivo, Rhododendoron Kaempferi Planch.; settings: after 3 months
# Text: as §1, §5, §6, §7
# yamazakura = assay: as above; format: in vivo, Prunus donarium Sieb. var. spontanae Makino; settings: after 3 months
# Text: as §1, §5, §6, §7
# manna grass = assay: Experiment 1 foliar application to naturally growing weeds; format: in vivo, Digitaria adsceudes Henr.; settings: for Reproduction-inhibiting effect: 2 months; for Killing index of Upperground parts: 21 days
# Text: as §1, §5, §8, §9, §10
# Japanese bush cranberry = assay: Experiment 3 foliar application to naturally growing shrubs; format: in vivo, Viburnum dilatatum Thunb.; settings: after 3 months
# Text: as §1, §5, §6, §7
# azumanezasa = assay: Experiment 1 foliar application to naturally growing weeds; format: in vivo, Pleioblastus Chino Makino; settings: for Reproduction-inhibiting effect: 4 months; for Killing index of Upperground parts: 21 days
# Text: as §1, §5, §8, §9, §10
# lace shrub = assay: Experiment 3 foliar application to naturally growing shrubs; format: in vivo, Stephanandra incisa Zabel; settings: for Reproduction-inhibiting: after 3 months
# Text: as §1, §5, §6, §7
# kumaichigo = assay: Experiment 2 foliar application in Japanese cypress afforested land; format: in vivo, Rubus crataegifolius Bunge; settings: 0.125%; after 30 days; monosodium salt
# Protocol: as §1, §2, §3, §4
# water hyacinth = assay: Experiment 5 foliar application to water hyacinths; format: in vivo, Eichhornia crassipes Solms; settings: 3 months
# Text: as §1, §5
# Water was placed in 20 cm.×30 cm. plastic vessels and a liquid fertilizer was added thereto. Two water hyacinths were floated in each vessel.
# 0.1 or 0.2% aqueous solutions of each of the compounds of the invention listed in Table 7 were sprayed by foliar application in an amount of 100 liter per 10 are. As a surfactant, 0.1% of octylphenyl polyoxyethanol was added.
# The killing index (0, no effect; 5, death) after 21 days and 3 months, and the reproduction-inhibiting effect (-, no reproduction; +++, maximum reproduction) after 3 months were determined.
# weeds and shrubs = settings: background statement; cited from earlier work
# [1] = 0.05%, after 3 months, monosodium salt
# [2] = 0.05%, after 30 days, monosodium salt
structure (smiles),measurement,setting,value
C[C@H](NC(=O)[C@H](C)NC(=O)[C@@H](N)CCP(C)(=O)O)C(=O)O [(L-2-Amino-4-methylphosphinobutyryl)-L-alanyl-L-alanine mono] [(L-2-Amino-4-methylphosphinobutyryl)-L-alanyl-L-alanine monodiethanolammonium salt],Killing index,miyakozasa; after 3 months,4.5
same,Killing index,miyakozasa; after 30 days,4.5
same,Reproduction-inhibiting,Japanese prickly ash; 0.05%,+++
same,Reproduction-inhibiting,Japanese prickly ash; 0.1%,+
same,Reproduction-inhibiting,Japanese prickly ash; 0.2%,-
same,Reproduction-inhibiting,"kiichigo; 0.05%, after 3 months",+++
same,Reproduction-inhibiting,"kiichigo; 0.1%, after 3 months",+
same,Reproduction-inhibiting,"kiichigo; 0.2%, after 3 months",-
same,Killing index,"eulalia; 0.25%, after 3 months",4.5
same,Killing index,"eulalia; 0.25%, after 30 days",4.5
same,Reproduction-inhibiting effect,yabugarashi; 0.05%,+++
same,Reproduction-inhibiting effect,yabugarashi; 0.1%,++
same,Reproduction-inhibiting effect,yabugarashi; 0.2%,±
same,Reproduction-inhibiting effect,purple nutsedge; 0.05%,+++
same,Reproduction-inhibiting effect,purple nutsedge; 0.1%,+++
same,Reproduction-inhibiting effect,purple nutsedge; 0.2%,+
same,Reproduction-inhibiting effect,cockspar grass; 0.05%,+++
same,Reproduction-inhibiting effect,cockspar grass; 0.1%,++
same,Killing index of Upperground parts,cockspar grass; 0.1%,3.5
same,Reproduction-inhibiting effect,cockspar grass; 0.2%,-
same,Killing index of Upperground parts,cockspar grass; 0.2%,4.5
same,Reproduction-inhibiting effect,warunasubi; 0.05%,+++
same,Reproduction-inhibiting effect,warunasubi; 0.1%,+++
same,Reproduction-inhibiting effect,warunasubi; 0.2%,+
same,Reproduction-inhibiting effect,white clover; 0.05%,+++
same,Reproduction-inhibiting effect,white clover; 0.1%,+++
same,Reproduction-inhibiting effect,white clover; 0.2%,-
same,Reproduction-inhibiting effect,hedge bindweed; 0.05%,+++
same,Reproduction-inhibiting effect,hedge bindweed; 0.1%,+++
same,Reproduction-inhibiting effect,hedge bindweed; 0.2%,+++
same,Reproduction-inhibiting effect,chigaya; 0.05%,+++
same,Reproduction-inhibiting effect,chigaya; 0.1%,++
same,Reproduction-inhibiting effect,chigaya; 0.2%,-
same,Reproduction-inhibiting,oak; 0.05%,+++
same,Reproduction-inhibiting,oak; 0.1%,++
same,Reproduction-inhibiting,oak; 0.2%,-
same,Reproduction-inhibiting,torch azalea; 0.05%,+++
same,Reproduction-inhibiting,torch azalea; 0.1%,++
same,Reproduction-inhibiting,torch azalea; 0.2%,-
same,Reproduction-inhibiting,yamazakura; 0.05%,+++
same,Reproduction-inhibiting,yamazakura; 0.1%,++
same,Reproduction-inhibiting,yamazakura; 0.2%,-
same,Reproduction-inhibiting effect,manna grass; 0.05%,+++
same,Reproduction-inhibiting effect,manna grass; 0.1%,++
same,Killing index of Upperground parts,manna grass; 0.1%,3.5
same,Reproduction-inhibiting effect,manna grass; 0.2%,-
same,Killing index of Upperground parts,manna grass; 0.2%,4.5
same,Reproduction-inhibiting,Japanese bush cranberry; 0.05%,+++
same,Reproduction-inhibiting,Japanese bush cranberry; 0.1%,+
same,Reproduction-inhibiting,Japanese bush cranberry; 0.2%,-
same,Reproduction-inhibiting effect,azumanezasa; 0.05%,+++
same,Reproduction-inhibiting effect,azumanezasa; 0.1%,+
same,Reproduction-inhibiting effect,azumanezasa; 0.2%,-
same,Reproduction-inhibiting,lace shrub; 0.05%,+++
same,Reproduction-inhibiting,lace shrub; 0.1%,++
same,Reproduction-inhibiting,lace shrub; 0.2%,-
CP(=O)(O)CC[C@H](N)C(=O)O [L-2-Amino-4-methylphosphinobutanoic acid monosodium salt],Reproduction-inhibiting,"Japanese prickly ash; 0.05%, monosodium salt",+++
same,Reproduction-inhibiting,"Japanese prickly ash; 0.1%, monosodium salt",+
same,Reproduction-inhibiting,Japanese prickly ash; 0.2%,-
same,Killing index,kiichigo; [1],1.5
same,Reproduction-inhibiting,kiichigo; [1],++
same,Killing index,kiichigo; [2],3.5
same,Reproduction-inhibiting,"kiichigo; 0.1%, after 3 months",-
same,Reproduction-inhibiting,"kiichigo; 0.2%, after 3 months",-
same,Killing index,"eulalia; 0.125%, after 3 months, monosodium salt",4.5
same,Killing index,"eulalia; 0.125%, after 30 days, monosodium salt",3.5
same,Reproduction-inhibiting effect,"yabugarashi; 0.05%, monosodium salt",++
same,Reproduction-inhibiting effect,"yabugarashi; 0.1%, monosodium salt",+
same,Reproduction-inhibiting effect,"yabugarashi; 0.2%, monosodium salt",±
same,Reproduction-inhibiting effect,"purple nutsedge; 0.05%, monosodium salt",+++
same,Reproduction-inhibiting effect,"purple nutsedge; 0.1%, monosodium salt",+
same,Reproduction-inhibiting effect,"purple nutsedge; 0.2%, monosodium salt",±
same,Reproduction-inhibiting effect,"cockspar grass; 0.05%, monosodium salt",++
same,Reproduction-inhibiting effect,"cockspar grass; 0.1%, monosodium salt",±
same,Killing index of Upperground parts,"cockspar grass; 0.1%, monosodium salt",4.5
same,Reproduction-inhibiting effect,cockspar grass; 0.2%,-
same,Reproduction-inhibiting effect,"warunasubi; 0.05%, monosodium salt",+++
same,Reproduction-inhibiting effect,"warunasubi; 0.1%, monosodium salt",+
same,Reproduction-inhibiting effect,"warunasubi; 0.2%, monosodium salt",±
same,Reproduction-inhibiting effect,"white clover; 0.05%, monosodium salt",+++
same,Reproduction-inhibiting effect,"white clover; 0.1%, monosodium salt",+
same,Killing index of Upperground parts,"white clover; 0.1%, 21 days, monosodium salt",4.5
same,Reproduction-inhibiting effect,white clover; 0.2%,-
same,Reproduction-inhibiting effect,"hedge bindweed; 0.05%, monosodium salt",+++
same,Reproduction-inhibiting effect,"hedge bindweed; 0.1%, monosodium salt",++
same,Reproduction-inhibiting effect,"hedge bindweed; 0.2%, monosodium salt",+
same,Reproduction-inhibiting effect,"chigaya; 0.05%, monosodium salt",++
same,Reproduction-inhibiting effect,chigaya; 0.1%,-
same,Reproduction-inhibiting effect,chigaya; 0.2%,-
same,Reproduction-inhibiting,"oak; 0.05%, monosodium salt",++
same,Reproduction-inhibiting,oak; 0.1%,-
same,Reproduction-inhibiting,oak; 0.2%,-
same,Reproduction-inhibiting,"torch azalea; 0.05%, monosodium salt",+++
same,Reproduction-inhibiting,torch azalea; 0.1%,-
same,Reproduction-inhibiting,torch azalea; 0.2%,-
same,Killing index,"yamazakura; 0.05%, monosodium salt",1.5
same,Reproduction-inhibiting,"yamazakura; 0.05%, monosodium salt",++
same,Reproduction-inhibiting,yamazakura; 0.1%,-
same,Reproduction-inhibiting,yamazakura; 0.2%,-
same,Reproduction-inhibiting effect,"manna grass; 0.05%, monosodium salt",++
same,Reproduction-inhibiting effect,"manna grass; 0.1%, monosodium salt",±
same,Killing index of Upperground parts,"manna grass; 0.1%, monosodium salt",4.5
same,Reproduction-inhibiting effect,manna grass; 0.2%,-
same,Reproduction-inhibiting,"Japanese bush cranberry; 0.05%, monosodium salt",+++
same,Reproduction-inhibiting,"Japanese bush cranberry; 0.1%, monosodium salt",++
same,Reproduction-inhibiting,Japanese bush cranberry; 0.2%,-
same,Killing index,kumaichigo,4.5
same,Reproduction-inhibiting effect,"azumanezasa; 0.05%, monosodium salt",++
same,Killing index of Upperground parts,"azumanezasa; 0.05%, monosodium salt",2.5
same,Reproduction-inhibiting effect,azumanezasa; 0.1%,-
same,Killing index of Upperground parts,"azumanezasa; 0.1%, monosodium salt",4.5
same,Reproduction-inhibiting effect,azumanezasa; 0.2%,-
same,Reproduction-inhibiting effect,"water hyacinth; 0.1%, listed as L-AMPB monosodium salt, monosodium salt",±
same,Reproduction-inhibiting effect,water hyacinth; 0.2%,-
same,Reproduction-inhibiting,"lace shrub; 0.05%, monosodium salt",++
same,Killing index,lace shrub; [2],3.5
same,Reproduction-inhibiting,lace shrub; 0.1%,-
same,Reproduction-inhibiting,lace shrub; 0.2%,-
"O=C([O-])C(F)(F)C(F)F.[Na+] [sodium 2,2,3,3-tetrafluoropropionate]",Reproduction-inhibiting,Japanese prickly ash; 0.1%,+++
same,Reproduction-inhibiting,Japanese prickly ash; 0.2%,+++
same,Reproduction-inhibiting,Japanese prickly ash; 0.4%,+++
same,Reproduction-inhibiting,"kiichigo; 0.1%, after 3 months",+++
same,Reproduction-inhibiting,"kiichigo; 0.2%, after 3 months",+++
same,Reproduction-inhibiting,"kiichigo; 0.4%, after 3 months",+++
same,Killing index,"eulalia; 0.5%, after 30 days",4.5
same,weeding effects of known herbicides in words,weeds and shrubs,effective for eulalia and bamboo grass; also recorded: not so effective for shrubs
same,Reproduction-inhibiting,oak; 0.1%,+++
same,Reproduction-inhibiting,oak; 0.2%,+++
same,Reproduction-inhibiting,oak; 0.4%,+++
same,Reproduction-inhibiting,torch azalea; 0.1%,+++
same,Reproduction-inhibiting,torch azalea; 0.2%,+++
same,Reproduction-inhibiting,torch azalea; 0.4%,+++
same,Reproduction-inhibiting,yamazakura; 0.1%,+++
same,Reproduction-inhibiting,yamazakura; 0.2%,+++
same,Reproduction-inhibiting,yamazakura; 0.4%,+++
same,Reproduction-inhibiting,Japanese bush cranberry; 0.1%,+++
same,Reproduction-inhibiting,Japanese bush cranberry; 0.2%,+++
same,Reproduction-inhibiting,Japanese bush cranberry; 0.4%,+++
same,Reproduction-inhibiting,lace shrub; 0.1%,+++
same,Reproduction-inhibiting,lace shrub; 0.2%,+++
same,Reproduction-inhibiting,lace shrub; 0.4%,+++
